The source made the active and inactive calls.
Tests used:
Cytochrome P450 1A2 = target: T1, Cytochrome P450 1A2 (Homo sapiens, UniProt P05177);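 further: PubChem cytochrome P450 panel assay, CYP1A2 panel member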
T1 sequence (P05177 whole entry): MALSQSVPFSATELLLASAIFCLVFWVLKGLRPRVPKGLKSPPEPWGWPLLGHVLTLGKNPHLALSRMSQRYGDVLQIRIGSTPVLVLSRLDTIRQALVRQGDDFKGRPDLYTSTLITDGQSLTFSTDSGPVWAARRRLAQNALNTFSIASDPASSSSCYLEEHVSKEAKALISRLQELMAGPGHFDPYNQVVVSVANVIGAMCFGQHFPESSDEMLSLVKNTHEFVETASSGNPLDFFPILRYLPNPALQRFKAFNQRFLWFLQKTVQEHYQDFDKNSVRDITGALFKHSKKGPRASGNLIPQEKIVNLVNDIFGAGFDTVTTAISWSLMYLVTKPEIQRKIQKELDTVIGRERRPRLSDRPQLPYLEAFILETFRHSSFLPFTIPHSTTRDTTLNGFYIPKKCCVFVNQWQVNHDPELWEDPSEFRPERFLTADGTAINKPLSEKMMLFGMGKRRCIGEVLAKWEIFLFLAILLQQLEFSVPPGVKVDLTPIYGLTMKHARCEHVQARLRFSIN

Cytochrome P450 2C19 = Cytochrome P450 2C19 (Homo sapiens, UniProt P33261); assay: Cytochrome panel assay with activity outcomes. Panel member name: p450-cyp2c19 Compounds with AC50 equal or less than 10 uM are considered active; type: functional
Cytochrome P450 3A4 = Cytochrome P450 3A4 (Homo sapiens, UniProt P08684);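 further: CYP3A4 tested as one member of a cytochrome P450 panel screen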
Cytochrome P450 2C9 = Cytochrome P450 2C9 (Homo sapiens, UniProt P11712)
[1] = target: T2, Zinc finger protein mex-5 (Caenorhabditis elegans, UniProt Q9XUB2); assay: MEX-5/TCR-2 RNA interaction inhibitors, dose response, biochemical, C. elegans, fluorescence polarization (AID 1960)
T2 sequence (Q9XUB2 whole entry): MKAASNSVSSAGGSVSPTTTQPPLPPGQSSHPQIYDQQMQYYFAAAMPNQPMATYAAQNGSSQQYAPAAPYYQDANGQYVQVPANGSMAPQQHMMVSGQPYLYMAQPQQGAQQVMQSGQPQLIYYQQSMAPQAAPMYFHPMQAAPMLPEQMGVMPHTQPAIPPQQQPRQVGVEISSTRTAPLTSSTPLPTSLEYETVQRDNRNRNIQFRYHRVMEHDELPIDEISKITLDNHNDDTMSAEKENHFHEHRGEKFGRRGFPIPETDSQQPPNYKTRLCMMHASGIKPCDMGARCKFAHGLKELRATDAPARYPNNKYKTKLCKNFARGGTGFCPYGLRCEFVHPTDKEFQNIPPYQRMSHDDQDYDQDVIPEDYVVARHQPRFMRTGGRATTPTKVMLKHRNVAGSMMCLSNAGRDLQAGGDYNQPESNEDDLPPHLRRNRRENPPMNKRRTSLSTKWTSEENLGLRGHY

[2] = target: T3, RNA-binding protein pos-1 (Caenorhabditis elegans, UniProt G5EF15); assay: inhibitors of POS-1/mex-3 RNA binding, dose response, biochemical, fluorescence polarization (AID 1964);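 further: purified POS-1 fused to maltose binding protein made in E. coli; potency of compounds blocking POS-1 binding to fluorescent RNA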
T3 sequence (G5EF15 whole entry): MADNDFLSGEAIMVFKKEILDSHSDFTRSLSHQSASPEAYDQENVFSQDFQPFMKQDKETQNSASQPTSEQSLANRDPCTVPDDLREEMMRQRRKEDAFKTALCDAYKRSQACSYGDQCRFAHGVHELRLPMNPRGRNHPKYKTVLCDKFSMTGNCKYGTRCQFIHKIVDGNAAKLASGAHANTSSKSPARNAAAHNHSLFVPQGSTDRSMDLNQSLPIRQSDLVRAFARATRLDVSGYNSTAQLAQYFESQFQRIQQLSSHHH

[3] = target: T4, Heat shock factor protein 1 (Mus musculus, UniProt P38532); assay: HSF1 potentiators in luciferase reporter cells, confirmation, cell-based, NIH3T3, luminescence, dose retest (AID 435004); type: functional;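 further: stress induced by proteasome inhibitor MG132 added 30 min after compound; luciferase reporter driven by HSF1 response element in NIH3T3 cells; actives raise luminescence as potentiators of the MG132 stress response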
T4 sequence (P38532 whole entry): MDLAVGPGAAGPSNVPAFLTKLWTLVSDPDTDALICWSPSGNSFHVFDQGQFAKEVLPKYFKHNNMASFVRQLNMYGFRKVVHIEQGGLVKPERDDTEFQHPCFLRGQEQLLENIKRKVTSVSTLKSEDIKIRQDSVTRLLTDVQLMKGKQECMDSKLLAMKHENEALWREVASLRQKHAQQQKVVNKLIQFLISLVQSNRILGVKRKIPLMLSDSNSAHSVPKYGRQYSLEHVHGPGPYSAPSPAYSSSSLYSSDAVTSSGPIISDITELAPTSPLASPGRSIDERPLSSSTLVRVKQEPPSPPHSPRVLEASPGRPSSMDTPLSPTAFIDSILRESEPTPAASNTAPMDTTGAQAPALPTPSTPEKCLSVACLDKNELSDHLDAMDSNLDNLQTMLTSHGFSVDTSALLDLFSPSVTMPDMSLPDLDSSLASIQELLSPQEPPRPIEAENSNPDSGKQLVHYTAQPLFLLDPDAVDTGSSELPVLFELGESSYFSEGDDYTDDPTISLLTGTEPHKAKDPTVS

H4 = assay: Luminescence Cell-Based Dose Response HTS to Identify Activators of 5'UTR Stem-Loop Driven Prion Protein mRNA Translation in H4 Neuroglioblastoma Cells. [Related pubchem assays: 1829 (Project Summary), 1814 (Primary HTS)]; type: functional; conditions: Homo sapiens

Chain of Cytochrome P450 2C9 (P11712 whole entry): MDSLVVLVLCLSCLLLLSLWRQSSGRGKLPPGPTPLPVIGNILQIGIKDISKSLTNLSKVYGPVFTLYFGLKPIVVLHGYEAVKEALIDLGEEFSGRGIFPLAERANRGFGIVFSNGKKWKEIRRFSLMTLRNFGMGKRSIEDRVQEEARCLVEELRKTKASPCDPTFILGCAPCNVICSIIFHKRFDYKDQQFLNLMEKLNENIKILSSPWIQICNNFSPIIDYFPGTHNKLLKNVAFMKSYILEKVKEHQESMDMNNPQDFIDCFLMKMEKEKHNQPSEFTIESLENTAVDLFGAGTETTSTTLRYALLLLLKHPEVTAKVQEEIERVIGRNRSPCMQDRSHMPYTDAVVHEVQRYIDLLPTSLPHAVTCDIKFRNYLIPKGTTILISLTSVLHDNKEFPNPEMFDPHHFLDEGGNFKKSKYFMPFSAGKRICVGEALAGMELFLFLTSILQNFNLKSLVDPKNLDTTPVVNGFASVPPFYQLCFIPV
Chain of Cytochrome P450 2C19 (P33261 whole entry): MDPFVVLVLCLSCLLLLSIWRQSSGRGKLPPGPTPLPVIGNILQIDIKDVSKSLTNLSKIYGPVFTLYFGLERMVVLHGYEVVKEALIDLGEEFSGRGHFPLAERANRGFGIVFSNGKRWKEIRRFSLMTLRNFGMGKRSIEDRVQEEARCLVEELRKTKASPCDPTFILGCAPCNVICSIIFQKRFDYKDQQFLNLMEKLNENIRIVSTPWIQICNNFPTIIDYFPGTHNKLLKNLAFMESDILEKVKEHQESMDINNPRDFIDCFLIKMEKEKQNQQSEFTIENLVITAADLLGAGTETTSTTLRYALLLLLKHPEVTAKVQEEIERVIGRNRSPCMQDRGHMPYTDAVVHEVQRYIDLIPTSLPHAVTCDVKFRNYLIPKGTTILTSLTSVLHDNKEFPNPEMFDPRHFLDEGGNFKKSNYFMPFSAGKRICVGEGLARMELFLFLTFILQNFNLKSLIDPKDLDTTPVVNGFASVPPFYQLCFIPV
Chain of Cytochrome P450 3A4 (P08684 whole entry): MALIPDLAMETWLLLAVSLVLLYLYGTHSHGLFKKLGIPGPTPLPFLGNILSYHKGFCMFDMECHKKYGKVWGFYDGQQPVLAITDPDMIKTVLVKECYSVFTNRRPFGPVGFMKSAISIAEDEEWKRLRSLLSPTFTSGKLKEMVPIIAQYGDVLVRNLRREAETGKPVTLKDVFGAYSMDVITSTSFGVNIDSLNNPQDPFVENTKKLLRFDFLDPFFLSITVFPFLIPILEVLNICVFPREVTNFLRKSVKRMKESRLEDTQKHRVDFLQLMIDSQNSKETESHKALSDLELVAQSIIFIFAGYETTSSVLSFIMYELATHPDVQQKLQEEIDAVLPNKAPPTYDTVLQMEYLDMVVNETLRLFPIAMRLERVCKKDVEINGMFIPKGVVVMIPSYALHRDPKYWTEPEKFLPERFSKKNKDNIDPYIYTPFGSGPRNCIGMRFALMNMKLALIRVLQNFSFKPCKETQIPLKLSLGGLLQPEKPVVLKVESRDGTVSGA

## O=C(NC1CCCCC1)C(c1cccs1)N(C(=O)C(F)(F)F)c1ccccc1 (stereo unspecified)
Cytochrome P450 1A2
  AC50: 2.51 µM (inconclusive)

## Clc1ccccc1-c1cc(NCCN2CCOCC2)ncn1
Cytochrome P450 2C19; read-out: AC50
  AC50: 25.1 µM (inconclusive)
Cytochrome P450 1A2
  AC50: 31.6 µM (inconclusive)

## COCCn1c(=O)c(C)nc2cnc(OC)nc21
Cytochrome P450 3A4
  AC50: 31.6 µM (inconclusive)

## COc1cc(-c2ccc(/N=N\c3ccc4c(S(=O)(=O)O)cc(S(=O)(=O)O)c(N)c4c3O)c(OC)c2)ccc1/N=N\c1ccc2c(S(=O)(=O)O)cc(S(=O)(=O)O)c(N)c2c1O
Cytochrome P450 3A4
  AC50: 10 µM (inconclusive)
Cytochrome P450 2C9
  AC50: 10 µM (inconclusive)

## O=c1c(-c2ccc(F)cc2)nc2cnc(Oc3cccc(Cl)c3)nc2n1C[C@H]1CCCO1
Cytochrome P450 2C19; read-out: AC50
  AC50: 39.8 µM (inconclusive)
Cytochrome P450 3A4
  AC50: 12.6 µM (inconclusive)

## Cc1cc(NC(=O)c2c([N+](=O)[O-])cnn2C)no1
Cytochrome P450 3A4
  AC50: 25.1 µM (inconclusive)
Cytochrome P450 2C9
  AC50: 39.8 µM (inconclusive)

## CC1(OC(=O)c2cnc3ccccc3n2)C(=O)C=C2C=C(c3ccc(C#N)cc3)OC=C2C1=O (stereo unspecified)
[1]
  EC50: 44.9 µM (active)
[2]
  EC50: 39.8 µM (active)

## COC(=O)CCCC1=CC2=CC(=O)C(C)(OC(=O)c3ccc(Cl)nc3)C(=O)C2=CO1 (stereo unspecified)
[1]
  EC50: 18.8 µM (active)
[2]
  EC50: > 150 µM (not active)

## CC(C)OC(=O)c1ccc(COc2ccc3ccc(=O)oc3c2)o1
[3]
  EC50: 66.6 µM (active)

## Cc1ccc(S(=O)(=O)C(C#N)c2nc3ccccc3nc2N2CC(C)OC(C)C2)cc1C (stereo unspecified)
[1]
  EC50: 26.1 µM (inconclusive)
[2]
  EC50: 4.67 µM (inconclusive)

## COc1ccc(-n2c(=O)c3c4c(sc3n(CC(N)=O)c2=O)CCCCC4)cc1
[3]
  EC50: > 260 µM (inactive)

## O=c1[nH]c(=O)n([C@H]2C[C@H](O)[C@H](CO)O2)cc1/C=C\Br
Cytochrome P450 3A4
  AC50: 20 µM (inconclusive)
Cytochrome P450 1A2
  AC50: 31.6 µM (inconclusive)

## CC(C)(C)OC(=O)N1CSC[C@H]1C(=O)NC[C@H](CC(=O)O)c1ccc(Cl)cc1
[3]
  EC50: > 260 µM (inactive)

## COc1cccc(N/C(SCc2cccc([N+](=O)[O-])c2)=C(/C#N)C(=O)NCc2cccs2)c1
[3]
  EC50: > 260 µM (inactive)

## Cc1cccc(C2C3=C(CCCC3=O)N=C3c4ccccc4C(=O)C32)c1 (stereo unspecified)
[3]
  EC50: 26.1 µM (active)

## COc1ccccc1C(=O)CSc1nnc(-c2ccco2)o1
[3]
  EC50: 65 µM (active)

## O=C(NC1CC1)c1cccc(Nc2ccc(-c3ccc4c(c3)OCCO4)nn2)c1
H4
  EC50: 52.2 µM (active)

## CN(C)C(=O)c1ccc(-c2cc(NCc3cccnc3)ncn2)cc1
Cytochrome P450 1A2
  AC50: 20 µM (inconclusive)

## Cc1ccc(-c2nc3ccccc3[nH]2)cc1NC(=O)c1ccc2c(c1)OCO2
[3]
  EC50: 70.2 µM (active)

## COCC1C2CC[C@H]3C(OCc4ccc(OC)cc4)OC[C@]4(C)[C@H]3C2=C(CN4C(=O)OC(C)(C)C)[C@H](C)C1COC (stereo partly specified)
Cytochrome P450 1A2
  AC50: 15.8 µM (inconclusive)
Cytochrome P450 2C9
  AC50: 15.8 µM (inconclusive)

## O=C1NC(=O)N(CCc2ccccc2)C(=O)/C1=C/NNC(=O)c1ccccc1
[1]
  EC50: > 150 µM (not active)
[2]
  EC50: 40.2 µM (active)

## Cc1ccc(C)c(NC2CCCCC2NS(=O)(=O)c2ccccc2)c1 (stereo unspecified)
[3]
  EC50: > 260 µM (inactive)

## CC1(OC(=O)c2ccco2)C(=O)C=C2C=C(c3ccsc3)OC=C2C1=O (stereo unspecified)
[1]
  EC50: 23.1 µM (active)
[2]
  EC50: > 300 µM (not active)

## CCCNC(=O)NC(=O)CSc1cccc(C(F)(F)F)c1
[3]
  EC50: > 260 µM (inactive)

## CCN(CC)C(=O)CNc1ccc(C(F)(F)F)cc1[N+](=O)[O-]
[1]
  EC50: > 300 µM (not active)
[2]
  EC50: 40 µM (inconclusive)

## CCOc1ccc(-c2nn(-c3ccccc3)cc2/C=C(\C#N)S(=O)(=O)c2ccccc2)cc1C
Cytochrome P450 3A4
  AC50: 11.2 µM (inconclusive)
Cytochrome P450 2C9
  AC50: 10 µM (inconclusive)

## O=c1nc(SCc2cccc([N+](=O)[O-])c2)[nH]c2nc[nH]c12
Cytochrome P450 2C19
  AC50: inconclusive
Cytochrome P450 3A4
  AC50: 3.16 µM (inconclusive)

## CCC(C)(C)NC(=O)c1ccc2c(c1)N(CC(=O)OC)C(=O)C(C)(C)O2
Cytochrome P450 2C19; read-out: AC50
  AC50: 20 µM (inconclusive)
Cytochrome P450 1A2
  AC50: 0.158 µM (inconclusive)

## NC(=NO)C1COc2ccccc2O1 (stereo unspecified)
Cytochrome P450 2C19; read-out: AC50
  AC50: 11.2 µM (inconclusive)
Cytochrome P450 1A2
  AC50: 14.1 µM (inconclusive)
Cytochrome P450 2C9
  AC50: 2.51 µM (inconclusive)

## CCCNS(=O)(=O)c1ccc(CCC(=O)NCc2ccc3c(c2)OCO3)cc1
[1]
  EC50: > 300 µM (not active)
[2]
  EC50: > 300 µM (not active)

## CC(C)(O)C#Cc1ccc(C(=O)NCc2cccs2)s1
Cytochrome P450 2C19; read-out: AC50
  AC50: 17.8 µM (inconclusive)
Cytochrome P450 3A4
  AC50: 28.2 µM (inconclusive)

## CCc1nc(O)c(C#N)c2c1CSC(C)(C)C2
[3]
  EC50: > 260 µM (inactive)

## COc1cccc(-c2nc(C[S+]([O-])CC(=O)N3CCC4(CC3)OCCO4)c(C)o2)c1 (stereo unspecified)
Cytochrome P450 2C19; read-out: AC50
  AC50: 14.1 µM (inconclusive)
Cytochrome P450 3A4
  AC50: 12.6 µM (inconclusive)
Cytochrome P450 1A2
  AC50: 25.1 µM (inconclusive)
Cytochrome P450 2C9
  AC50: 31.6 µM (inconclusive)

## Cc1ccc(/C=C2\C(=O)NC(=S)N(c3ccc(F)cc3)C2=O)o1
[1]
  EC50: 43.9 µM (active)
[2]
  EC50: > 300 µM (not active)

## COc1ccc(-n2cnnc2SCC(=O)N(C)C2CCS(=O)(=O)C2)cc1 (stereo unspecified)
[3]
  EC50: > 260 µM (inactive)

## C/C=C(/C)C(=O)Nc1cccc(C2=NOC3(C2)C[C@@H](C(N)=O)N(C(=O)CC)C3)c1 (stereo partly specified)
[3]
  EC50: > 260 µM (inactive)

## Nc1ncnc2c1CCC2
[3]
  EC50: > 260 µM (inactive)

## COc1cccc(N2CCN(S(=O)(=O)c3ccc(-c4coc(C)n4)cc3)CC2)c1
[3]
  EC50: > 260 µM (inactive)

## O=C(Nc1cccc(C(F)(F)F)c1)c1n[nH]c(Cn2cncn2)n1
Cytochrome P450 2C19; read-out: AC50
  AC50: 28.2 µM (inconclusive)
Cytochrome P450 3A4
  AC50: 25.1 µM (inconclusive)

## COc1ccccc1N1CCN(c2nc(-c3ccccc3)cc(C(F)(F)F)n2)CC1
Cytochrome P450 1A2
  AC50: 0.631 µM (inconclusive)

## CCN1C(=O)/C(=C\c2c[nH]c3ccccc23)S/C1=N\c1ccc(C)cc1
Cytochrome P450 1A2
  AC50: 6.31 µM (inconclusive)

## CCN(CC)c1ccc(/C=c2/sc3nnc(-c4ccccc4C)n3c2=O)cc1
[1]
  EC50: > 300 µM (inconclusive)
[2]
  EC50: > 300 µM (not active)

## C[C@@H]1c2ccccc2Cn2cc3c(c21)C(=O)c1cccc(O[P@@](=O)(O)OCc2ccccc2)c1C3=O
Cytochrome P450 1A2
  AC50: 3.16 µM (inconclusive)

## CC(C)(S)[C@H](N)C(=O)O
Cytochrome P450 1A2
  AC50: 6.31 µM (inconclusive)

## ClCC1CS/C(=N\C23CC4CC(CC(C4)C2)C3)O1 (stereo unspecified)
[3]
  EC50: > 260 µM (inactive)

## Cn1c(CN2CCN(c3ccc(Cl)cc3)CC2)nc2ccccc21
[3]
  EC50: > 260 µM (inactive)

## O=C(O[C@@H]1Cc2c(O)cc(O)cc2O[C@@H]1c1cc(O)c(O)c(O)c1)c1cc(O)c(O)c(O)c1 [EPIGALOCATECHIN GALLATE]
[1]
  EC50: 0.727 µM (active)
[2]
  EC50: 5.89 µM (inconclusive)

## Clc1cncc(N2CCNCC2)n1 [MK-212]
Cytochrome P450 2C19; read-out: AC50
  AC50: 6.31 µM (inconclusive)
Cytochrome P450 3A4
  AC50: 15.8 µM (inconclusive)

## COc1cc(OC)c(C(=O)CCCCN2CCC3(CC2)NC(=O)NC3=O)cc1NS(=O)(=O)c1ccc(C(F)(F)F)cc1 [RS-102,221]
Cytochrome P450 3A4
  AC50: 7.94 µM (inconclusive)
